Test results from US9675068B2, “Solid form sodium lauryl sulfate (SLS) crawling pest elimination composition” (ECOLAB USA INC., priority 2008, dated 2017).

Assay: Ability of SLS forms to go into solution in water
Format: physicochemical
Conditions: at 12% and 18%
Text: In one embodiment, the pesticide composition of the present invention includes a combination of sodium lauryl sulfate (SLS) and water. In particular, the pesticide composition includes a combination of a solid form of sodium lauryl sulfate and water. Suitable component concentrations for a concentrate of the pesticide composition include between about 90% and about 100% sodium lauryl sulfate by weight and balance water, particularly between about 93% and about 100% sodium lauryl sulfate by weight and balance water and more particularly between about 95% and about 100% sodium lauryl sulfate by weight and balance water. Suitable component concentrations for a use solution of the pesticide composition include between about 1% and about 10% sodium lauryl sulfate by weight and balance water and particularly between about 1% and about 6% sodium lauryl sulfate by weight and balance water. At concentrations higher than about 12% by weight sodium lauryl sulfate, solid form sodium lauryl sulfate may not effectively form a solution. In other embodiments, similar intermediate concentrate and use concentrations may also be present in the cleaning compositions of the invention.
The compositions of Examples 1, 2 and 3 are compositions of the present invention using needle form sodium lauryl sulfate (SLS) as the active ingredient in a pesticide composition. […]

Structure (SMILES): CCCCCCCCCCCCOS(=O)(=O)[O-].[Na+] [needle form SLS, sodium lauryl sulfate]
- going into solution in water: would not go into solution
